Results on 1 compound are retold here after publication PMC9609996, “SAR Study and Molecular Mechanism Investigation of Novel Naphthoquinone-furan-2-cyanoacryloyl Hybrids with Antitumor Activity” (Pharmaceutics, 2022).

In one assay the test system is Hep3B. Nature of the assay: CCK-8 anti-proliferation assay, Hep3B. The assay is classed as cell-based, human. The following applies: 48 h, mean ± SD. As to the method:
(§1) Human cervical cancer HeLa, human prostate cancer PC3, human colonic carcinoma HCT116, human lung carcinoma A549, human breast cancer MDA-MB-231, mouse melanoma B16, human ovarian cancer SKOV3, human hepatoma Hep3B, and human liver L02 cells were purchased from the Cell Bank of Shanghai Institute of Biochemistry and Cell Biology, Chinese Academy of Sciences (Shanghai, China). The HeLa, A549, B16, PC3, MDA-MB-231, HCT116, and L02 cells were cultured in Dulbecco’s modified Eagle medium (DMEM, Gibco Inc.; Gaithersburg, MD, USA). All cultures were supplied with 10% fetal bovine serum (FBS; YHSM, Beijing, China), 100 IU/mL of penicillin, and 100 μg/mL of streptomycin, and cells were incubated at 37 °C in an atmosphere of 5% CO2.
(§2) A CCK-8 kit (MCE, USA) was used to perform a CCK-8 assay. Cells were plated and grown in the 96-well plates for the indicated period (48 h) in the incubator, followed by an incubation with the CCK-8 solutions for 1–4 h. Subsequently, the absorbance (450 nm) was measured by a microplate reader. The median inhibitory concentration (IC50) was determined from the dose–response curve. Experiments were performed in a triplicate.

A further assay relates to HeLa cells. Nature of the assay: Colony formation assay. It counts as cell-based, human. The following applies: treated 24 h, cultured two weeks. As to the method:
HeLa cells were cultured at 1 × 10^3 cells per well in a 6-well plate with a regular growth medium for 12 h. After the cells were fixed on the wall, they were treated with different concentrations of compound 5c or 0.1% DMSO for 24 h. Then, the cells were cultured in a fresh medium for two weeks until the colonies were visible. A crystal violet staining solution (Beyotime, Shanghai, China) was used to stain the colonies for 30 min, and the result was recorded by a smartphone. The colonies were defined as >50 cells/colony.

In assay [1] the test system is four cancer cell lines (HeLa, PC3, A549, and HCT116). Nature of the assay: CCK-8 inhibition rates over four cancer cell lines. It counts as cell-based. The note with it: Homo sapiens, HeLa, PC3, A549, HCT116, CCK-8, read-out: inhibition rate, span over the four cancer cell lines. As for the experimental part:
First, the inhibition rates at 20 μM for all newly synthesized compounds were evaluated on four cancer cell lines (HeLa, PC3, A549, and HCT116) by a CCK-8 assay. […] A variety of aliphatic amine substituents were well tolerated (4e, 4f, 5c, and 8f).
as §1, §2

A further assay has as its system Bcl-xl in HeLa cells. Nature of the assay: Western blot, Bcl-xl. It counts as cell-based, human. The note with it: 6–12 μM, 24 h. As to the method: Protein levels were determined by the standard Western blot assay. HeLa cells were incubated with different concentrations of compound 5c or 0.1% DMSO for 24 h. Cells harvested with trypsin were treated with 1× RIPA lysis buffer (50 mM Tris-HCl, pH 7.4, 150 mM NaCl, 0.25% deoxycholic acid, 1% NP-40, 1 mM ethylenediaminetetraacetate (EDTA), and protease inhibitor PMSF (Solarbio, Beijing, China) to extract the total proteins. Then, an aliquot of proteins from the total cell lysates (4–40 μg/lane) was separated using sodium dodecyl sulfate (8, 10, or 12%) polyacrylamide gel electrophoresis (BioRad Laboratories, Hercules, CA, USA). The aliquot was wet-transferred to a PVDF membrane (BioRad Laboratories, Hercules, CA, USA), blotted with primary antibodies (purchased from Cell Signaling Technology, Danvers, MA, USA) specific for the STAT3 (#12640), p-STAT3 (#9145), AKT (#4691), p-AKT (#4060), Bax (#5023), Bcl-xl (#2764), secondary isotype-specific antibodies (#7074) and glyceraldehyde-3-phosphate dehydro-genase (GAPDH, #2118) as the internal standard overnight; then, they were probed with secondary isotype-specific antibodies for another 2 h at 37 °C. The bound immuno-complexes were detected using a ChemiDOC XRS+ system (BioRad Laboratories, Hercules, CA, USA).

Another assay concerns PC3. Nature of the assay: CCK-8 anti-proliferation assay, PC3. It counts as cell-based, human. The note with it: mean ± SD; for IC50: 48 h. As to the method: as §1, §2

A value given as a limit tells only on which side of the number the result lay.

Take `N#C/C(=C\c1ccc(C2=CC(=O)c3ccccc3C2=O)o1)C(=O)NCCN1CCOCC1` [Compound 5c, (E)-2-cyano-3-(5-(1,4-dioxo-1,4-dihydronaphthalen-2-yl)furan-2-yl)-N-(2-morpholinoethyl)acrylamide]: the IC50 with Hep3B is 34.77 ± 0.03 µM; in the assay with Hep3B (Homo sapiens), above 20.5 µM; with PC3 it was 20.5 ± 0.05 µM; with PC3 (Homo sapiens, PC-3, 48 h), above 20.5 µM. Also, in the assay with HeLa cells, the “colony forming ability of HeLa cells” value is recorded as “significantly inhibited”. For the same compound, the inhibition at 20 µM in assay [1] was 24.7 to 75.8%; in the assay on PC3 (Homo sapiens, PC-3, 20 μM, read-out: Inhibition Rate (%) at 20 μM PC3), 25.54 ± 0.06%. Moreover, the “total Bcl-xl levels” value with Bcl-xl in HeLa cells is on record as “significantly decreased”.
